Test [1] relates to dextran-labeled vesicles carrying MHC class II molecules in astrocytes. Briefly: Mobility of Alexa Fluor 546 dextran-labeled MHC class II vesicles in control and IFNγ activated astrocytes. Particulars: for average vesicle maximal displacement / average vesicle track length: FIG. 4. It counts as cell-based. From the text:
(§1) Cell organelles are stained by commercially available dyes and/or by cell transfection. E.g. peptidergic secretory vesicles are labeled by cell transfection for the secretory peptide—pro-atrial natriuretic peptide tagged with emerald green fluorescent protein (ANP.emd; see Han et al., Proc Natl Acad Sci USA. 1999; 96:14577-14582; Krian et al., J. Neurosci. 2003; 23(5):1580-3.). Glutamatergic vesicles are stained by cell transfection for vesicular glutamate transporter 1 tagged with green fluorescent protein (VGLUT1-GFP). ATP containing vesicles are stained by incubation of cells in quinacrine dihydrochloride (1 μM, 15 min at room temperature) (Pangrsic et al., J Biol. Chem. 2007; 28; 282(39):28749-58) and endosomes/lysosomes by incubation of cells in LysoTracker Red DND-99 (200 nM, 5 min, RT, Invitrogen) (Potokar et al., Glia. 2010; 58(10):1208-19). To observe MHC class II expression cells are loaded with 0.1 mg/ml Alexa Fluor^546 dextran (Molecular Probes, Invitrogen) for 16 hours at 37° C.
Cell cultures are treated with the biologically active substances (i.e. constituents of sera, cerebrospinal fluid and other biologically relevant small inorganic and organic substances, other related substances and mixtures of these), or with the reference standard compound, which consists of FTY720 and FTY720-phosphate (FTY720-P) in ratio from 1:0.1 to 1:100, dissolved in cell culture medium for 10 min at 18-37° C. To observe augmentation of the MHC class II molecule expression, cells are treated with interferon gamma (IFN-γ) for 48 hours at 37° C. or any other stimulant of the antigen presentation.
(§2) Cell loaded coverslips are then rinsed with extracellular solution (consisting of 10 mM HEPES/NaOH (pH 7.2), 10 mM D-glucose, 130 mM NaCl, 2 mM CaCl2, 2 mM MgCl2, and 5 mM KCl) and observed by fluorescence microscopy at 63× or 100× magnification using 488 nm Ar—Ion laser excitation (for ANP.emd, VGLUT1-GFP and quinacrine dihydrochloride) or 543 nm He—Ne laser exitation (for LysoTracker Red DND-99, Alexa Fluor^546 dextran), and band-pass filtered at 505-530 nm or long-pass filtered at 560 nm. Time-lapse fluorescence images are acquired at 0.5-2 Hz for 1-10 minutes to monitor vesicle mobility.
Cells can be stimulated with adenosine triphosphate (ATP) or any other stimulus of exocytotic release to record vesicle mobility and secretion before and after cell stimulation.
(§3) Vesicle traffic is analyzed by particle tracking software previously described (Potokar et al.; Biochem Biophys Res Commun. 2005; 329(2):678-83).
(§4) Several mobility parameters are determined for variable time epochs typically lasting 10-60 seconds: step length (displacement of a vesicle within the two successive frames), speed, track length (TL; the total path traveled by a vesicle within the defined time epoch), the vesicle maximal displacement (MD; a measure for the net translocation of a vesicle within the defined time epoch; cf. Wacker et al., J Cell Sci 110 (Pt 13):1453-63), the angle of MD and the directionality index (DI; the ratio of MD to TL).
The example of vesicle mobility modulation in relation to the antigen presentation in IFNγ activated astrocytes. […] Therefore the mobility analysis of dextran-labeled vesicles can be applied to describe the modulated mobility of the vesicles carrying MHC class II molecules upon stimulation of antigen presentation in astrocytes. […]

Test [2] has as its system secretory vesicles in transfected astrocytes expressing ANP.emd. Briefly: Mobility of fluorescently labeled (ANP.emd) secretory vesicles in cultured astrocytes, particle tracking of time-lapse fluorescence images. The format is cell-based, rat. Particulars: for mean vesicle track length (TL) / mean vesicle maximal displacement (MD): 10 μM sphingosine, versus standard reference compound (Stand), 15 s epochs; for mean vesicle track length (TL): FIG. 2E; for mean vesicle maximal displacement (MD): FIG. 2F. As to the method:
Cultured astrocytes, e.g. isolated as previously described by Schwartz & Wilson (Glia. 1992; 5(1):75-80) or any other cell type isolated from animal tissues or clonal cell lines derived from human or animal sources are seeded onto coverslips and maintained in an adequate cell cultured medium.
as §1
Cell cultures are treated with the biologically active substances (i.e. constituents of sera, cerebrospinal fluid and other biologically relevant small inorganic and organic substances, other related substances and mixtures of these), or with the reference standard compound, which consists of FTY720 and FTY720-phosphate (FTY720-P) in ratio from 1:0.1 to 1:100, dissolved in cell culture medium for 10 min at 18-37° C. […]
as §2, §3, §4
Example of the analysis of biologically active substances, such as sphingosine and immunoglobulin G (IgG) from human serum, on the mobility of secretory vesicles with respect to the effect of the standard compound, which is also the subject of the present invention. The example is shown in FIGS. 2E and F. The mobility of fluorescently labeled vesicles in transfected astrocytes expressing ANP.emd was analyzed by particle analyzing program Track2 and quantitative parameters of vesicle mobility were determined. […]

Test [3] relates to MHC class II molecules in astrocytes. Nature of the test: MHC class II expression in astrocytes by immunostaining and fluorescence microscopy. Particulars: IFNγ treated versus control astrocytes; overlay with dextran loaded structures; FIG. 3. It counts as cell-based.
Description: as §1, with “C. […]” for “C.”

The mark [4] stands for this setting: cell stimulation with 1 mM ATP, control and IFNγ treated cells.
The mark [5] stands for this setting: IFNγ treated astrocytes versus non-treated control cells (Spon.).

We go through 3 molecules from US20140178892A1, “SCREENING METHODS BASED ON VESICLE MOBILITY” (priority 2011, published 2014).

On to `Nc1ncnc2c1ncn2[C@@H]1O[C@H](COP(=O)(O)OP(=O)(O)OP(=O)(O)O)[C@@H](O)[C@H]1O` [ATP, adenosine triphosphate], for which, in test [1] (setting [4]), the “average vesicle maximal displacement” value is on record as “reduces” and the “average vesicle track length” value is given as “reduces”.

For the molecule `CCCCCCCCCCCCC/C=C/[C@@H](O)[C@@H](N)CO` [sphingosine], in test [2], the “mean vesicle track length (TL)” value was “significantly attenuates” and the “mean vesicle maximal displacement (MD)” value was “significantly attenuates”. Moreover, in test [2] (listed as Sphingosine), the “mean vesicle track length (TL)” value was “strongly attenuates” and the “mean vesicle maximal displacement (MD)” value is given as “strongly attenuates”. The vesicle mobility entry in test [2] (dependence on extracellular concentration, regions near the plasmalemma and deeper in the cytoplasm) is “dose-dependently attenuated”.

B1: IFNγ: cytokine interferon gamma (protein, UniProt P01579 24-161, looked up)
Interferon gamma: QDPYVKEAENLKKYFNAGHSDVADNGTLFLGILKNWKEESDRKIMQSQIVSFYFKLFKNFKDDQSIQKSVETIKEDMNVKFFNSNKKKRDDFEKLTNYSVTDLNVQRKAIHELIQVMAELSPAAKTGKRKRSQMLFRG
Regarding B1, in test [1] (setting [5]), the “average vesicle maximal displacement” value is listed as “significantly increase” and the “average vesicle track length” value is “significantly increase”. Also, the “mobility, in particular long-range mobility, of MHC class II-positive vesicles” value in test [1] (astrocytes exposed to interferon-γ) was “enhanced”. For the same molecule, in test [3], the “expression of MHC class II molecules” value was “induces”.
